From patent US10898536B2, “Method of inhibiting propionibacterium acnes” (Sami Labs Limited, priority 2016, dated 2021)
Converted amounts (≈) assume the structure as drawn.

Assays:
[1] = tested on: Propionibacterium acnes (ATCC 11827); experiment: Minimum inhibitory concentration by broth micro dilution method; assay type: cell-based; conditions: Cutibacterium acnes, ATCC11827, P. acnes, 37° C., 48 h, anaerobic
Description: In vitro anti-acne activity of isolated compounds 1 and 2 from the stem bark extract of Artocarpus hirsutus were evaluated against acne causing bacterium, Propionibacterium acnes. The antibacterial activity was determined by agar well diffusion method. The minimum inhibitory concentration (MIC) of the compounds were then ascertained by broth micro dilution method. Microorganisms: Acne causing bacterium Propionibacterium acnes (ATCC 11827) was procured from American type culture collection Rockville, USA. Media: Reinforced Clostridial Agar (Hi Media; […]) and Reinforced Clostridial broth (Hi Media; […]) were used in the experiments. The minimum inhibitory concentrations (MIC) of the isolated compounds against P. acnes were determined by broth micro dilution method. Two-fold dilutions of the isolated compounds were prepared in Reinforced Clostridial broth (RCB) to obtain concentrations in the range of 0.1-2000 μg/mL. The diluted samples were loaded in 96-well micro titre plates. The samples were inoculated with the test culture of P. acnes so that the final concentration of the bacteria in each well is 1×10^5 CFU (CLSI, M11-A8; Vol. 32 No. 5). The plates were incubated under anaerobic conditions at 37° C. for 48 h and thereafter observed for inhibition of bacterial growth. The minimum concentration required for inhibiting the growth of P. acnes was considered as minimum inhibitory concentration (MIC).

[2] = tested on: Propionibacterium acnes (ATCC 11827); experiment: Antibacterial activity by agar well diffusion method (zone of inhibition); assay type: cell-based; conditions: P. acnes, 48 h anaerobic, inhibition detected in all tested concentrations (10-1.25 μg/mL)
Description: In vitro anti-acne activity of isolated compounds 1 and 2 from the stem bark extract of Artocarpus hirsutus were evaluated against acne causing bacterium, Propionibacterium acnes. The antibacterial activity was determined by agar well diffusion method. The minimum inhibitory concentration (MIC) of the compounds were then ascertained by broth micro dilution method.
Microorganisms: Acne causing bacterium Propionibacterium acnes (ATCC 11827) was procured from American type culture collection Rockville, USA.
Media: Reinforced Clostridial Agar (Hi Media; M154) and Reinforced Clostridial broth (Hi Media; M443) were used in the experiments.
The antibacterial activities of isolated compounds were performed by agar well diffusion method. The samples were dissolved in DMSO to obtain a concentration in the range of 0.5-100 mg/mL. Propionibacterium acnes was cultured on Reinforced Clostridial Agar (RCA) M154 procured from Hi Media and incubated at 37° C. for 48 h in an anaerobic chamber providing gas mixture containing 80% nitrogen, 10% carbon dioxide and 10% hydrogen. The bacterial culture was suspended in sterile normal saline and adjusted to 1.0×10^8 CFU/mL (CLSI, M02-A11; Vol. 32 No. 1). The sterile RCA was seeded with the standardized culture of P. acnes and poured into plates. […] The diameter of zone of inhibition around the wells were measured and recorded.

[3] = Solubility in solvents (observed when recording NMR); assay type: physicochemical; conditions: most of the solvents except DMSO
Excerpt: In ^1H NMR spectrum, the phenolic OH (5-OH) adjacent to the carbonyl was assigned from the downfield signal at δ 13.36 ppm (70%) and 13.33 ppm (30%) and these two signals appeared due to the presence of the two conformers α and β in about 70:30 ratio. The assignment of two doublets at δ 7.15 ppm (˜30%) and 6.94 ppm (˜70%) was crucial in ^1H NMR spectrum. Nonetheless the disappearance of these two signals in D2O exchanged ^1H NMR spectrum (FIG. 5) ascertained that these two doublet signals are nothing but appeared due to the presence of the hydroxyl group (14-OH) sustaining powerful coupling with anomeric proton (14-H). Thus the signals at δ 7.15 ppm (d, ˜30%, β-OH, J=7.5 Hz) and at 6.94 ppm (d, ˜70%, α-OH, J=4.2 Hz) were assigned corresponding to the anomeric 14-OH. Similarly, though the anomeric proton (14-H) was expected to appear as a doublet however owing to further coupling with 14-OH, it appeared as two signals one as double doublets at δ 5.32 ppm (dd, ˜70%, 14-α-H, J=4.2 Hz, 2.1 Hz) and another one as triplet at 4.87 ppm (t, ˜30%, 14-β-H, J=7.8 Hz). The coupling interferences in 14-α/β-H due to 14-OH was disappeared in D2O exchanged ^1H NMR spectrum (FIG. 5) and signals were clearly appeared as doublets at δ 5.28 (d, ˜70%, 14-α-H, J=1.2 Hz) and 4.81 ppm (d, ˜30%, 14-β-H, J=8.7 Hz). As expected the signals ratio ˜70:30 were reflected in the ^13C NMR spectrum also. […]

MIC [1] [µg/mL]	solubility [3]	Compound	zone of inhibition around the wells [2]
2 (≈ 4.58 µM)	–	CC(C)=CCc1c(-c2cc(O)c(O)cc2O)oc2c3c(cc(O)c2c1=O)OC(C)(C)C=C3 [Artonine E]	good inhibition
2 (≈ 4.44 µM)	relatively poor	CC1C(O)Oc2c(O)cc(O)c3c2C1Cc1c-3oc2c3c(cc(O)c2c1=O)OC(C)(C)C=C3 (stereo not drawn) [pyranocycloartobiloxanthone A (α & β), Pyranocycloartobiloxanthone A]	good inhibition
0.03 (≈ 0.0706 µM)	–	CCC[C@@H]1C[C@@H](C(=O)N[C@@H]([C@H]2O[C@H](SC)[C@H](O)[C@@H](O)[C@H]2O)[C@H](C)Cl)N(C)C1 [Clindamycin, reference compound]	–
